The results in this text go back to patent US11136320B2, “Fused ring derivative used as FGFR4 inhibitor” (JACOBIO PHARMACEUTICALS CO., LTD., priority 2019, dated 2021).

For this assay, the system named is Hepatoma cell Hep3B (high expression of FGFR4 and FGF19). Put plainly: Hepatoma cell proliferation inhibition experiment (MTS method). The assay is classed as cell-based. (Tetrazolium assays rely on reduction of a dye to a coloured formazan, in cell work by metabolically active cells.)

As for `CSC[C@@H](C)Nc1cc(NC(=O)N2CCCc3cc(CN4CCN(C)CC4=O)c(C=O)nc32)ncc1C#N` [Compound 4, (R)—N-(5-Cyano-4-((1-(methylthio)propan-2-yl)amino)pyridin-2-yl)-7-formyl-6-((4-methyl-2-oxopiperazin-1-yl)methyl)-3,4-dihydro-1,8-naphthyridine-1 (2H)-carboxamide], the “inhibitory effect on Hepatoma cell Hep3B compared with the reference compound” value is recorded as “better inhibitory effect”. In addition, the half-maximal inhibitory concentration (IC50) (commonly the concentration needed to halve the response being measured) (Homo sapiens, Hep3B, 120 h incubation, read-out: Hep3B(IC50 μM)) worked out at 0.014 µM.
